Test results published in patent publication US12186303B2, “Feed additive for cattle comprising n-acetyl-l-tryptophan as active ingredient” (CJ CHEILJEDANG CORPORATION, priority 2018, dated 2025).

Experiments:
[1] = test system: Korean native steers; assay: Serum hematological properties (biochemical autoanalyzer) under heat stress conditions; assay type: in vivo, Korean native cattle; design: GLO (globulin = TP − ALB) / BUN (blood urea nitrogen) / GLU (glucose) / NEFA (non-esterified fatty acid) / TG (triglyceride) / Na (sodium): unit not given here; settings: for ALB (albumin) / BUN (blood urea nitrogen) / CPK (creatinine phosphokinase) / GLO (globulin = TP − ALB) / GLU (glucose) / K (potassium) / NEFA (non-esterified fatty acid) / Na (sodium) / TG (triglyceride) / TP (total protein): 0.1% NALT, serum
Description: After grouping the animals by statistical analysis of initial body weights, the animals were bred in 1.0×1.5 m^2 individual pens during the experiment period. The feed was offered based on an amount of dry matter of daily total mixed ration (TMR) per head. After 7 days of an adaptation period for N-acetyl-L-tryptophan (NALT), a mixture of 0.1% N-acetyl-L-tryptophan (NALT) and the total mixed ration was fed to individual animals every morning at 8 a.m. for 6 weeks, and water was available ad libitum. Total amounts of L-tryptophan ingested by the control and the experimental group (NALT-treated group) by feeding NALT were 6.0 g/day/head and 18.2 g/day/head, respectively. The experiment was performed such that the NALT-treated group ingested 12.2 g/day/head more L-tryptophan than the control.
Meanwhile, results of growth performance analysis (body weight and average feed intake) and genetic analysis of loin tissue were obtained by statistically comparing and analyzing significant differences between the control and the NALT-treated group, and results of hematological analysis were obtained via statistical comparison and analysis depending on NALT treatment, experiment period (days), and interaction (treatment×days). These numerical values were expressed as average values, and a significance test was performed at the 5% level using Student's t-test by using a JMP 5.0 software package (SAS Institute Inc., Cary, NC, USA).
Blood samples were collected from a jugular vein of each sentinel animal before offering the feed at the starting day of the experiment (week 0), the mid-point of the experiment (week 5), and the final day of the experiment (week 10) and stored in a vacutainer (Becton Dickinson, Franklin Lakes, NJ, USA). Complete blood cell count (CBC) was performed using whole blood using a VetScan HM2 (Abaxis, Union City, CA, USA), and hematological properties were identified using serum with a biochemical autoanalyzer (FUJI DRI-CHEM 7000, Fujifilm, Tokyo, Japan). In addition, total protein (TP), albumin (ALB), creatinine phosphokinase (CPK), and blood urea nitrogen (BUN), which are related to blood protein metabolism, were analyzed; triglycerides (TG) and non-esterified fatty acid (NEFA), which are related to energy metabolism, were analyzed; and sodium (Na), chlorine (CI), and potassium (K), which are blood electrolytes, were analyzed.

[2] = test system: Korean native steers; assay: Body weight and average daily gain according to NALT feeding under heat stress conditions; assay type: in vivo, Korean native cattle
Experimental: In the present disclosure, 8 Korean native steers (15.9±0.16 months old on average) were selected and used. The experimental procedure and method were approved by the Institutional Animal Care and Use Committee at Konkuk University, Seoul, Republic of Korea (Approval No. KU17136). […] Analysis of chemical composition (moisture, crude protein, crude fat, crude ash, etc.) and amino acids (19 types) of the basal diet stored at −20° C. was performed, and the results are shown in Table 3. After grouping the animals by statistical analysis of initial body weights, the animals were bred in 1.0×1.5 m^2 individual pens during the experiment period. The feed was offered based on an amount of dry matter of daily total mixed ration (TMR) per head. After 7 days of an adaptation period for N-acetyl-L-tryptophan (NALT), a mixture of 0.1% N-acetyl-L-tryptophan (NALT) and the total mixed ration was fed to individual animals every morning at 8 a.m. for 6 weeks, and water was available ad libitum. Total amounts of L-tryptophan ingested by the control and the experimental group (NALT-treated group) by feeding NALT were 6.0 g/day/head and 18.2 g/day/head, respectively. The experiment was performed such that the NALT-treated group ingested 12.2 g/day/head more L-tryptophan than the control. Meanwhile, results of growth performance analysis (body weight and average feed intake) and genetic analysis of loin tissue were obtained by statistically comparing and analyzing significant differences between the control and the NALT-treated group, and results of hematological analysis were obtained via statistical comparison and analysis depending on NALT treatment, experiment period (days), and interaction (treatment×days). These numerical values were expressed as average values, and a significance test was performed at the 5% level using Student's t-test by using a JMP 5.0 software package (SAS Institute Inc., Cary, NC, USA). Temperature (° C.) and relative humidity (%) were recorded every day during a one-week adaptation period and a 6-week experiment period using a portable temperature and humidity meter. Average temperature and average relative humidity of each week were calculated using the temperature and relative humidity recorded during the total experiment period. In addition, a temperature-humidity index (THI) was calculated using temperature and humidity as shown in the following equation, and heat stress state may be diagnosed using the THI as an index feature of a heat load. THI=(1.8×T+32)−[0.55−0.0055×RH)×(1.8×T−26.8) Initial weight (week 0), intermediate weight (week 5), and end weight (week 10) of sentinel animals were measured, i.e., three times in total, before offering morning feed. The average daily gain (ADG) of the sentinel animals was calculated by dividing the differences in weight, between the initial weight and the intermediate weight and between the intermediate weight and the end weight, by the total number of days of the experiment.

Hematological analysis indicators (Table 14), effect of treatment with 0.1% NALT [1]: No statistically significant difference
ALB (albumin) ([1]; Day 0): 3.3
BUN (blood urea nitrogen) ([1]; Day 0): 16.7
CPK (creatinine phosphokinase) ([1]; Day 0): 112
GLO (globulin = TP − ALB) ([1]; Day 0): 2.8
GLU (glucose) ([1]; Day 0): 49.6
K (potassium) ([1]; Day 0): 4.7
NEFA (non-esterified fatty acid) ([1]; Day 0): 139
Na (sodium) ([1]; Day 0): 141.3
TG (triglyceride) ([1]; Day 0): 25.5
TP (total protein) ([1]; Day 0): 6.1
ALB (albumin) ([1]; Day 35): 3.6
BUN (blood urea nitrogen) ([1]; Day 35): 19.8
CPK (creatinine phosphokinase) ([1]; Day 35): 267
GLO (globulin = TP − ALB) ([1]; Day 35): 2.9
GLU (glucose) ([1]; Day 35): 39.1
K (potassium) ([1]; Day 35): 4.8
NEFA (non-esterified fatty acid) ([1]; Day 35): 167
Na (sodium) ([1]; Day 35): 142.6
TG (triglyceride) ([1]; Day 35): 19.1
TP (total protein) ([1]; Day 35): 6.5
ALB (albumin) ([1]; Day 70): 3.5
BUN (blood urea nitrogen) ([1]; Day 70): 18.5
CPK (creatinine phosphokinase) ([1]; Day 70): 276
GLO (globulin = TP − ALB) ([1]; Day 70): 2.9
GLU (glucose) ([1]; Day 70): 56.3
K (potassium) ([1]; Day 70): 4.9
NEFA (non-esterified fatty acid) ([1]; Day 70): 168
Na (sodium) ([1]; Day 70): 141.1
TG (triglyceride) ([1]; Day 70): 22.1
TP (total protein) ([1]; Day 70): 6.3
Structure (SMILES): CC(=O)N[C@@H](Cc1c[nH]c2ccccc12)C(=O)O [NALT, N-acetyl-L-tryptophan]
Body weight ([2]; heat stress, 0.1% NALT, Week 0 (initial weight)): 428.8 kg
Body weight ([2]; heat stress, 0.1% NALT, Week 5): 480.8 kg
Body weight ([2]; heat stress, 0.1% NALT, Week 10): 510.5 kg
ADG ([2]; heat stress, 0.1% NALT, week 0 to week 5): 1.49 kg/day
Total ADG ([2]; heat stress, 0.1% NALT, week 0 to week 10): 1.17 kg/day
ADG ([2]; heat stress, 0.1% NALT, week 5 to week 10): 0.85 kg/day
Average daily gain compared to the control ([2]; period where the THI was over 80 (high heat stress)): significantly increased
